Laboratory results published in PubChem BioAssay AID489027 (Sanford-Burnham Center for Chemical Genomics, 2010).
Active and inactive are the calls of the source. No rule for the calls is given here.

target: UPR counterscreen luciferase reporter, luminescence; test: activators in UPR counterscreen luciferase reporter, dose response, counter-screen for adaptive UPR activator project, cell-based, luminescence (AID 489027)

**Q.** With `COCc1cc(C)nc(OCC(=O)N/N=C/c2ccc(-c3cc([N+](=O)[O-])ccc3Cl)o2)c1C#N` as the compound, how does the EC50 read?
**A.** The EC50 was 13.6 µM.

**Q.** `CCCCCc1nc2c(c(=O)c3ccccc3n2C)c(=O)n1C1CCCCCC1` was tested. Which EC50 did it give?
**A.** The EC50 was 15.3 µM.

**Q.** How did the EC50 turn out when `CCOC(=O)c1cc(-c2ccccc2)sc1NC(=O)c1ccc(OC)cc1` was run?
**A.** Its EC50 is “inactive”.

**Q.** `Cc1cccc(Nc2nc3c(S(=O)(=O)c4ccccc4)nnn3c3ccccc23)c1C` was tested. Which EC50 did it give?
**A.** The EC50 was 12.3 µM.

**Q.** `CCOC(=O)c1nnc(-c2ccc(C)cc2)nc1Oc1ccc(Cl)cc1Cl` was tested. Which EC50 did it give?
**A.** The EC50 was 13.1 µM.

**Q.** With `CCc1nc(N=Nc2c(O)[nH]c3ccccc23)c2c3c(sc2n1)CCC3` as the compound, how does the EC50 read?
**A.** The EC50 was 10.7 µM.

**Q.** `O=C(/C=C/c1ccccc1)NC(NC(=S)Nc1cccc(Cl)c1)C(Cl)(Cl)Cl` (stereo unspecified) was tested. Which EC50 did it give?
**A.** Its EC50 is > 80 µM (inactive).

**Q.** For `COc1ccc2[nH]c3c(c2c1)CCN1C(=O)C(CC(=O)NC/C=C(\C)CCC=C(C)C)C[C@H](C(=O)N(C(C)C)C(C)C)[C@@]31C` (stereo partly specified), which EC50 is on record?
**A.** The EC50 was “inactive”.

**Q.** `CCOC(=O)c1c(NC(=O)CNC2CCCc3ccccc32)sc(C(N)=O)c1C` (stereo unspecified) was tested. Which EC50 did it give?
**A.** The EC50 was > 80 µM (inactive).

**Q.** Which EC50 does the source give for `Oc1cc(-c2ccc(N3CCCCC3)nc2)cc2cccnc12` here?
**A.** The EC50 was > 80 µM (inactive).

**Q.** Which EC50 does the source give for `COc1ccc(OC)c(-c2nnc3n2N=C(c2ccc(OC)c(OC)c2)CS3)c1` here?
**A.** The EC50 was > 80 µM (inactive).

**Q.** For `CCOc1ccccc1N=Cc1c(O)c2ccccc2oc1=O`, which EC50 is on record?
**A.** The EC50 was 8.11 µM.

**Q.** How did the EC50 turn out when `CCOc1ccc(NC(=S)NC(=O)/C=C/c2ccc(C)cc2)c([N+](=O)[O-])c1` was run?
**A.** Its EC50 is > 80 µM (inactive).

**Q.** For `COc1cc(SC#N)ccc1N=Cc1c(C)[nH]n(-c2ccc(C)c(C)c2)c1=O`, which EC50 is on record?
**A.** Its EC50 is 17.4 µM.

**Q.** Which EC50 does the source give for `CCCCCCCCCCOC(=O)Cn1c(COc2ccccc2OC)[n+](C)c2ccccc21` here?
**A.** The EC50 was 12.8 µM.

**Q.** Which EC50 does the source give for `CN(C)CCCn1cnc2c(c1=N)C(c1ccccc1)c1ccc3ccccc3c1O2` (stereo unspecified) here?
**A.** The EC50 was 7.75 µM.

**Q.** `O=c1[nH]c(CSc2ncnc3sc(-c4ccccc4)cc23)nc2ccccc12` was tested. Which EC50 did it give?
**A.** Its EC50 is > 80 µM (inactive).

**Q.** `O=C(Nc1ccc(NC(=O)c2sc3ccccc3c2Cl)cc1Cl)c1ccco1` was tested. Which EC50 did it give?
**A.** The EC50 was “inactive”.

**Q.** `CCOc1cc(/C=N/NC(N)=S)cc(Br)c1OCc1ccccc1C` was tested. Which EC50 did it give?
**A.** The EC50 was 12.5 µM.

**Q.** For `COc1ccc(C2NCCc3c2[nH]c2ccccc32)cc1COc1ccc(F)cc1` (stereo unspecified), which EC50 is on record?
**A.** The EC50 was 18.3 µM.

**Q.** With `COc1ccc2[nH]c3c(c2c1)CCN1C(=O)C(CC(=O)NC/C=C(\C)CCC=C(C)C)C[C@H](C(=O)N2CCOCC2)[C@@]31CCC1CCCC1` (stereo partly specified) as the compound, how does the EC50 read?
**A.** Its EC50 is 18.5 µM.
